According to patent US11384142B2, “Combination therapy for the treatment of ovarian cancer” (Hoffmann-La Roche Inc., priority 2012, dated 2022):

Tested on: platinum-resistant ovarian cancer (epithelial ovarian, fallopian tube or primary peritoneal cancer)
Experiment: AURELIA Phase III trial, efficacy (PFS by RECIST, ORR)
Assay type: in vivo, human
Conditions: for PFS Events, % / PFS Median, mo / ORR, %: by chemotherapy cohort; for ORR, %: overall response rate (RECIST and/or CA-125)
Description: The AURELIA trial evaluated the efficacy and safety of bevacizumab in combination with chemotherapy for platinum-resistant ovarian cancer. This study was designed as a prospective, open-label, randomised, two-arm Phase III evaluation of bevacizumab plus chemotherapy versus chemotherapy alone. To be eligible, patients must have ovarian cancer that progressed within 6 months of previous platinum-based therapy. Paclitaxel, topotecan or pegylated liposomal doxorubicin (PLD) was selected as chemotherapeutic combination partners since they are commonly used for treatment of platinum-resistant disease. By adding bevacizumab to chemotherapy, the AURELIA trial aimed to improve PFS for this group of patients who have limited therapeutic options and face a particularly poor prognosis. The primary objective was to compare progression-free survival (PFS) of patients randomised to selected chemotherapy only or to selected chemotherapy plus bevacizumab.
Study Design—This trial consisted of two (2) treatment arms: chemotherapy-alone (Arm 1) and chemotherapy plus bevacizumab (Arm 2). Patients were randomly assigned (1:1) to either arm, see FIG. 1.
Eligible patients received one of the following chemotherapies on a 4-week cycle at the discretion of the investigator: • a. Paclitaxel 80 mg/m^2 as a 1-hour i.v. infusion on days 1, 8, 15 and 22 q4w. • b. Topotecan 4 mg/m^2 as a 30 minute i.v. infusion on days 1, 8 and 15 q4w. Alternatively, a 1.25 mg/m^2 dose can be administered over 30 minutes on days 1-5 every three weeks. • c. Pegylated liposomal doxorubicin 40 mg/m^2 as a 1 mg/min i.v. infusion on day 1 only, q4w. After cycle 1, the drug can be delivered as a 1 h infusion.
The chemotherapy was selected from one of those described in Arm 1 at the discretion of the investigator. The chosen chemotherapy was initially combined with bevacizumab 10 mg/kg i.v. every two weeks (or 15 mg/kg every three weeks if used in combination with topotecan 1.25 mg/m^2 on days 1-5 of a every three weeks schedule). The initial bevacizumab infusion was over 90 minutes, with subsequent infusions over 60 minutes and then 30 minutes, as tolerated. Bevacizumab was administered before the chemotherapy at the first cycle and then administered prior or after the chemotherapy at subsequent cycles. In case chemotherapy was completed before diagnosis of progressive disease, patients continued to receive bevacizumab as either: (a) 10 mg/kg i.v. every two weeks; or (b) 15 mg/kg every three weeks if topotecan was selected and administered at a dose of 1.25 mg/m^2 on days 1-5 of a every three weeks schedule. After disease progression, patients received standard of care treatment.
Analyses of PFS and ORR was based on tumour assessments (based on RECIST criteria) using cross sectional imaging (preferably by CT or MRI in case of contrast allergy) of the pelvis and abdomen and (by X-ray or preferably by CT-scan) of the chest. The same assessment technique was used throughout the study to evaluate a particular lesion.
Tumour assessments were performed at baseline then every 8 weeks (every 9 weeks for patients treated with 1.25 mg/m^2 topotecan on days 1-5 of a every three weeks cycle). Responses were confirmed by a second CT scan performed not earlier than 4 weeks after the criteria for response were first met.
Progressive serial elevation of serum CA-125 were used to determine CA-125 response and biological progression-free interval (PFIbio). Overall survival was measured from the date of randomisation to the date of death from any cause.
Eligible patients had ovarian cancer (measurable by RECIST 1.0 or assessable) that had progressed ≤6 mo after ≥4 cycles of platinum-based therapy. Patients with refractory ovarian cancer, history of bowel obstruction or >2 prior anticancer regimens were ineligible. […]

CC[C@@]1(O)C(=O)OCc2c1cc1n(c2=O)Cc2cc3c(CN(C)C)c(O)ccc3nc2-1 [TOP CT, topotecan]
PFS Events, %: 89% | PFS Median, mo: 2.1 mo | ORR, %: 3.3%

CC(=O)O[C@H]1C(=O)[C@@]2(C)[C@H]([C@H](OC(=O)c3ccccc3)[C@]3(O)C[C@H](OC(=O)[C@H](O)[C@@H](NC(=O)c4ccccc4)c4ccccc4)C(C)=C1C3(C)C)[C@]1(OC(C)=O)CO[C@@H]1C[C@@H]2O [PAC CT, paclitaxel]
PFS Events, %: 89% | PFS Median, mo: 3.9 mo | ORR, %: 28.8%

B1: bevacizumab (antibody, V domains shown)
VH: EVQLVESGGGLVQPGGSLRLSCAASGYTFTNYGMNWVRQAPGKGLEWVGWINTYTGEPTYAADFKRRFTFSLDTSKSTAYLQMNSLRAEDTAVYYCAKYPHYYGSSHWYFDVWGQGTLVTVSS
VL: DIQMTQSPSSLSASVGDRVTITCSASQDISNYLNWYQQKPGKAPKVLIYFTSSLHSGVPSRFSGSGSGTDFTLTISSLQPEDFATYYCQQYSTVPWTFGQGTKVEIKR
modifications: amino acid sequence of humanized antibody variable heavy chain; amino acid sequence of humanized antibody variable light chain
notes: recombinant humanized anti-VEGF monoclonal antibody
overall response rate (ORR) by RECIST, CA-125 or both (FIG. 3) (bevacizumab added to chemotherapy vs chemotherapy alone): increased the overall response rate (ORR)
